Test results: US12011433B2 (UNIVERSITÁ DEGLI STUDI DI BARI “ALDO MORO”, priority 2016, dated 2024)
Like-named read-outs stand apart in the source and are kept apart here.

Assays:
[1] = target: ovine COX-1 (Ovis aries (Sheep), UniProt P05979); assay: colorimetric COX (ovine) inhibitor screening assay kit; assay type: biochemical; conditions: for IC50: ovine COX-1; for inhibition at 50 µM: read-out: COX-1 [% inhibition at 50 μM], ovine COX-1, 50 μM
Protocol: (§1) Enzyme inhibition was determined using a colorimetric COX (ovine) inhibitor screening assay kit (Cayman Chemicals, Ann Arbor, MI, USA) following the manufacturer's instructions. Stock solutions of test compounds were dissolved in a minimum volume of DMSO.

[2] = target: ovine COX-2 (Ovis aries (Sheep), UniProt P79208); assay: as above; assay type: biochemical; conditions: for IC50: ovine COX-2; for inhibition at 50 µM: read-out: COX-2 [% inhibition at 50 μM], ovine COX-2, 50 μM
Chain of ovine COX-2 (P79208 17-603): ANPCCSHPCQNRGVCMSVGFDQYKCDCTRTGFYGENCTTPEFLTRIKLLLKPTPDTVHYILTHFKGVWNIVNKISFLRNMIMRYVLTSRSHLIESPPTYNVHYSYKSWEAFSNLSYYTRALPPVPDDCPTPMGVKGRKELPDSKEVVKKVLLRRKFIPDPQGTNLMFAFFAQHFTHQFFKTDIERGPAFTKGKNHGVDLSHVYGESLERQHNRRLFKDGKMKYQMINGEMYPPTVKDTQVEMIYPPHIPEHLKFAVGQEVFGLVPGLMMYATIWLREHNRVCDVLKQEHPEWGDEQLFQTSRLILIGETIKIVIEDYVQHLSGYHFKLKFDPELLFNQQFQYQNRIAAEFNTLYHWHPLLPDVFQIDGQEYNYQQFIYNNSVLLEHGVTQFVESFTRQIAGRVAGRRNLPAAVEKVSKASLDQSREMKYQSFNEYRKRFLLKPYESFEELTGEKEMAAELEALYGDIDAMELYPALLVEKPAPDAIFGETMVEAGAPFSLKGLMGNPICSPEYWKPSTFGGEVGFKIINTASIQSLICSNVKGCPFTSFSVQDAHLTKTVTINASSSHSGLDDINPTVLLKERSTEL
Protocol: as §1

[3] = target: COX-2 (Homo sapiens, UniProt P35354); assay: colorimetric COX Inhibitor screening Assay (peroxidase component, oxidized TMPD at 590 nm); assay type: biochemical; conditions: for inhibition at 50 µM: the highest concentration tested; for IC50: human cyclooxygenase
Chain of COX-2 (P35354 18-604 limits assumed): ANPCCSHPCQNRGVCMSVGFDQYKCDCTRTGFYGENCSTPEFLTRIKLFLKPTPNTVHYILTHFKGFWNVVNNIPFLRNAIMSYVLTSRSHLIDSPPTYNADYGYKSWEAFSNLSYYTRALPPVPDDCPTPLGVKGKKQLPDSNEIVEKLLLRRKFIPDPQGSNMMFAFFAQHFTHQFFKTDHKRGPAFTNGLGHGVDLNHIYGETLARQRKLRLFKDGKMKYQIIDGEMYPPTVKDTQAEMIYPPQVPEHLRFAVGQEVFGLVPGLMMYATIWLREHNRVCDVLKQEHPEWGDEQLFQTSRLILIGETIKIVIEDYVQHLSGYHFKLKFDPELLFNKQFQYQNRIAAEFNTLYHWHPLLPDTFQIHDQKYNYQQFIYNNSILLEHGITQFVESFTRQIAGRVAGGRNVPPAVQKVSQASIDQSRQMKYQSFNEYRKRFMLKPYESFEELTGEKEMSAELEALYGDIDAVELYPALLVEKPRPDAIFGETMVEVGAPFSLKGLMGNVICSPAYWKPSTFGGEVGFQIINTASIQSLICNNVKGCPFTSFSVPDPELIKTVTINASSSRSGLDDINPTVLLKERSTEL
Protocol: Human cyclooxygenase inhibitory activity was determined by a colorimetric COX Inhibitor screening Assay which measures the peroxidase component of the cyclooxygenases, monitoring the appearance of oxidized N,N,N′,N′-tetramethyl-p-phenylenediamine (TMPD) at 590 nm.

[4] = system: GLUT-1; assay: Caco-2 monolayer efflux assay, Apparent Permeability (Papp), with or without GLUT-1 inhibitor phloretin; assay type: in vitro ADME, Human; conditions: human
Protocol: (§2) In a monolayer efflux assay, the Apparent Permeability (Papp) in both basolateral to apical [Papp(B→A)] and apical to basolateral [Papp(A→B)] directions was determined for each compound (FIG. 2). Human colonic adenocarcinoma cell line (Caco-2) presents a facilitated transport system at the apical and basolateral surface. Caco-2 cells express high levels of GLUT-1 that are localized to the basolateral membrane and transport glucose to the serosal side.
(§3) The Papp(B→A) flux of each compound alone or in the presence of phloretin, a GLUT-1 inhibitor, has been determined. Since GLUT-1 is express in the basolateral compartment a high B→A flux means that the transport is GLUT-1 mediated because B→A flux represents the active transport.
(§4) A→B flux, which represents the passive transport, has also been determined for each compound (Table 2).

[5] = system: Caco-2 cells; assay: as above; assay type: in vitro ADME, Human; conditions: for Papp B → A, Phloretin: in the presence of 100 mM Phloretin; for reduction of the basolateral to apical flux (Papp B→A) in the presence of phloretin: phloretin vs alone
Protocol: as §2, §3, §4

[6] = as above; assay type: in vitro ADME, Human; conditions: human, compound alone
Protocol: as §2, §3, §4

Chain of ovine COX-1 (P05979 25-600): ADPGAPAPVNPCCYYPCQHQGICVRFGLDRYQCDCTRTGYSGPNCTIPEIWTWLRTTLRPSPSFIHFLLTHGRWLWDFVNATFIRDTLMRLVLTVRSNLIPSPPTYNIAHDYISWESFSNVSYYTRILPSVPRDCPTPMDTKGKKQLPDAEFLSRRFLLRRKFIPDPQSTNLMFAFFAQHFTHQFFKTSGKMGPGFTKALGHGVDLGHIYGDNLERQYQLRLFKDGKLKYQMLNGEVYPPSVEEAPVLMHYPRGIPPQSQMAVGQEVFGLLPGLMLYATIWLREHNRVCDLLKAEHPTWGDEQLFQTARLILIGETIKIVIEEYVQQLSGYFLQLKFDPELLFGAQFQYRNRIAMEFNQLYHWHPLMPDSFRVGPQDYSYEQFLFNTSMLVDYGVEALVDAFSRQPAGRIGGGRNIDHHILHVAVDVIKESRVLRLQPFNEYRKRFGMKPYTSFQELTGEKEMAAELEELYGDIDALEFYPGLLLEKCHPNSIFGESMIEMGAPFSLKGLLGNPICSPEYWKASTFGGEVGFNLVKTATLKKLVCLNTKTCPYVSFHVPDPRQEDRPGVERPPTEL

| IC50 [1] [nM] | inhibition at 50 µM [1] [%] | IC50 [2] [nM] | inhibition at 50 µM [2] [%] | Compound | also measured |
| --- | --- | --- | --- | --- | --- |
| 150 | 85 | > 50000 |  | COc1ccc(-c2noc(CC(=O)Nc3ccc(NC(=O)Cc4onc(-c5ccc(OC)cc5)c4-c4ccc(OC)cc4)cc3)c2-c2ccc(OC)cc2)cc1 [drawing 65] |  |
| 80 | 73 | > 50000 |  | COc1ccc(-c2noc(CC(=O)Nc3ccc(-c4ccc(NC(=O)Cc5onc(-c6ccc(OC)cc6)c5-c5ccc(OC)cc5)cc4)cc3)c2-c2ccc(OC)cc2)cc1 [drawing 66] |  |
| 13 | 75 | 120 | 45 | COc1ccc(-c2noc(CC(=O)NCCNC(=O)Cc3onc(-c4ccc(OC)cc4)c3-c3ccc(OC)cc3)c2-c2ccc(OC)cc2)cc1 [drawing 61] |  |
| 100 | 100 | 700 | 87 | COc1ccc(-c2noc(CC(=O)OCC3OC(O)C(O)C(O)C3O)c2-c2ccc(OC)cc2)cc1 (stereo not drawn) [drawing 44] |  |
|  | 100 | > 50000 | 38 | COc1ccc(-c2noc(CC(=O)O)c2-c2ccc(OC)cc2)cc1 [drawing 42, reference compound] |  |
| 5500 | 74 | > 50000 |  | COc1ccc(-c2noc(CC(=O)NCCCCNC(=O)Cc3onc(-c4ccc(OC)cc4)c3-c3ccc(OC)cc3)c2-c2ccc(OC)cc2)cc1 [drawing 64] |  |

Continued, compound first:

| Compound | IC50 [1] [nM] | inhibition at 50 µM [1] [%] | IC50 [2] [nM] | inhibition at 50 µM [2] [%] | also measured |
| --- | --- | --- | --- | --- | --- |
| COC(=O)CNC(=O)Cc1onc(-c2ccc(OC)cc2)c1-c1ccc(OC)cc1 | 70 | 95 | 4400 | 80 |  |
| CCC(CCCNC(=O)Cc1onc(-c2ccc(OC)cc2)c1-c1ccc(OC)cc1)NC(=O)Cc1onc(-c2ccc(OC)cc2)c1-c1ccc(OC)cc1 (stereo not drawn) [Compound 12, N-(4-(2-(3,4-Bis(4-methoxyphenyl)isoxazol-5-yl)acetamido)hexyl)-3,4-bis(4-methoxyphenyl)isoxazole-5-carboxyamide] |  |  |  |  | melting point: 159 to 161 °C |
| COc1ccc(-c2noc(CC(=O)NCCCCCCCCCCC(=O)OCC3OC(O)C(O)C(O)C3O)c2-c2ccc(OC)cc2)cc1 [GALMOF11, [(2S,3R,4S,6R)-3,4,5,6-tetrahydroxytetrahydro-2H-pyran-2-yl-]mhetyl 11-{2-[3,4-bis(4-methoxyphenyl)isoxazol-5-yl-]acetamido}undecanoate] |  |  |  |  | inhibition at 50 µM [3]: 64%; IC50 [3]: 270 nM; Papp A→B ([4]; compound alone, read-out: Papp A → B): 29.2 ×10⁻⁶ cm/s; Papp B→A ([4]; compound alone, read-out: Papp B → A): 77.2 ×10⁻⁶ cm/s; Papp A→B ([4]; with phloretin (GLUT-1 inhibitor), in Phloretin, read-out: Papp A → B, Phloretin): 29.2 ×10⁻⁶ cm/s; Papp B→A ([4]; with phloretin (GLUT-1 inhibitor), in Phloretin, read-out: Papp B → A, Phloretin): 62.2 ×10⁻⁶ cm/s; Papp B→A ([5]; compound alone): 77.2 ×10⁻⁶ cm/s; Papp B → A, Phloretin [5]: 62.2 ×10⁻⁶ cm/s; reduction of the basolateral to apical flux (Papp B→A) in the presence of phloretin [5]: 20% |
| CCCCC/C=C\C/C=C\C/C=C\C/C=C\CCCC(=O)Nc1ccc(NC(=O)Cc2onc(-c3ccc(OC)cc3)c2-c2ccc(OC)cc2)cc1 | 49 | 66 | > 50000 | 40 |  |
| COc1ccc(-c2noc(CC(=O)NCCCCCCNC(=O)Cc3onc(-c4ccc(OC)cc4)c3-c3ccc(OC)cc3)c2-c2ccc(OC)cc2)cc1 | 9000 | 50 | > 50000 | 22 |  |
| CCCCC/C=C\C/C=C\C/C=C\C/C=C\CCCC(=O)NCCCCNC(=O)Cc1onc(-c2ccc(OC)cc2)c1-c1ccc(OC)cc1 | 16000 | 57 | 800 | 61 |  |
| COc1ccc(-c2noc(CC(=O)NCCNC(=O)Cc3onc(-c4ccc(OC)cc4)c3-c3ccc(OC)cc3)c2-c2ccc(OC)cc2)cc1 [Compound 10, N,N′-(Ethane-1,2-di-yl)-bis-(2-[3,4-bis (4-methoxyphenyl)isoxazol-5-yl]acetamide)] |  |  |  |  | melting point: 145 to 148 °C |
| COc1ccc(-c2noc(CC(=O)Nc3ccc(NC(=O)Cc4onc(-c5ccc(OC)cc5)c4-c4ccc(OC)cc4)cc3)c2-c2ccc(OC)cc2)cc1 [Compound 14] |  |  |  |  | melting point: 178 to 182 °C |
| COc1ccc(-c2noc(CC(=O)NCCCCC(=O)OC[C@H]3OC(O)[C@H](O)[C@@H](O)[C@H]3O)c2-c2ccc(OC)cc2)cc1 (stereo partly drawn) [GALMOF5, 6-O-(5-{2-[3,4-bis(4-methoxyphenyl)isoxazol-5-yl]acetamido}pentanoyl)-D-galactopyranose] |  |  |  |  | reduction of the basolateral to apical flux (Papp B→A) in the presence of phloretin [5]: 37% |
| COc1ccc(-c2noc(CC(=O)NCCCCNC(=O)Cc3onc(-c4ccc(OC)cc4)c3-c3ccc(OC)cc3)c2-c2ccc(OC)cc2)cc1 [Compound 11, N-(4-(2-(3,4-Bis(4-methoxyphenyl)isoxazol-5-yl)acetamido)butyl)-3,4-bis(4-methoxyphenyl)isoxazole-5-carboxyamide] |  |  |  |  | melting point: 163 to 166 °C |
| COc1ccc(-c2noc(CC(=O)NCCCCC(=O)OC[C@H]3OC(O)[C@H](O)[C@@H](O)[C@H]3O)c2-c2ccc(OC)cc2)cc1 (mixture of isomers) [GALMOF5, 6-O-(5-{2-[3,4-bis(4-methoxyphenyl)isoxazol-5-yl]acetamido}pentanoyl)-D-galactopyranose] |  |  |  |  | inhibition at 50 µM [3]: 24%; IC50 [3]: > 50000 nM; Papp A→B ([4]; with phloretin 100 mM (GLUT-1 inhibitor), in the presence of 100 mM Phloretin, read-out: Papp A → B, Phloretin): 32.1 ×10⁻⁶ cm/s; Papp B→A ([4]; with phloretin 100 mM (GLUT-1 inhibitor), in the presence of 100 mM Phloretin, read-out: Papp B → A, Phloretin): 47.2 ×10⁻⁶ cm/s; Papp A→B [6]: 32.1 ×10⁻⁶ cm/s; Papp B→A [6]: 74.9 ×10⁻⁶ cm/s; Papp B → A, Phloretin [5]: 47.2 ×10⁻⁶ cm/s |
| COc1ccc(-c2noc(CC(=O)NCc3ccc(CNC(=O)Cc4onc(-c5ccc(OC)cc5)c4-c4ccc(OC)cc4)cc3)c2-c2ccc(OC)cc2)cc1 | > 50000 |  | > 50000 |  |  |
| COc1ccc(-c2noc(CC(=O)Nc3ccc(-c4ccc(NC(=O)Cc5onc(-c6ccc(OC)cc6)c5-c5ccc(OC)cc5)cc4)cc3)c2-c2ccc(OC)cc2)cc1 [Compound 16, N,N′-(Biphenyl-4,4′-di-yl)bis(2-(3,4-bis(4-methoxyphenyl)isoxazol-5-yl)acetamide)] |  |  |  |  | melting point: 240 to 243 °C |
| CCCCCCCCC(CCCNC(=O)Cc1onc(-c2ccc(OC)cc2)c1-c1ccc(OC)cc1)NC(=O)Cc1onc(-c2ccc(OC)cc2)c1-c1ccc(OC)cc1 (stereo not drawn) [Compound 13, N-(4-(2-(3,4-Bis(4-methoxyphenyl)isoxazol-5-yl)acetamido)dodecyl)-3,4-bis(4-methoxyphenyl)isoxazole-5-carboxyamide] |  |  |  |  | melting point: 134 to 138 °C |
| COc1ccc(-c2noc(CC(=O)NCC(=O)O)c2-c2ccc(OC)cc2)cc1 |  | 23 |  | 17 |  |
